According to ChEMBL document CHEMBL4266031, “Total Synthesis of Violaceoid A and (-)- and (+)-Violaceoid B” (2018):

Columns and labels:
Hs-578T = experiment: Antiproliferative activity against human Hs 578T cells after 48 hrs by WST8 assay; assay type: functional
MCF7 = experiment: Antiproliferative activity against human MCF7 cells after 48 hrs by WST8 assay; assay type: functional; details: for GI50: MCF7, 48 h

| SMILES | GI50 (Hs-578T) [µM] | GI50 (MCF7) [µM] | Activity (Hs-578T) | Activity (MCF7) |
| --- | --- | --- | --- | --- |
| CCCCCC[C@@H](O)c1c(O)ccc(O)c1CO | > 100 | > 100 | – | – |
| CCCCC/C=C/c1c(O)ccc(O)c1CO | 59.7 | 61.5 | Dose-dependent effect | Dose-dependent effect |
| CCCCCC[C@H](O)c1c(O)ccc(O)c1CO | > 100 | > 100 | – | – |
